Where two headings read alike, the source gives them in different places.
Assays:
EKVX = assay: NCI 60 cell line five dose, Non-Small Cell Lung Cancer; format: cell-based, human
MOLT-4 = assay: NCI 60 cell line five dose, Leukemia
UACC-257 = assay: NCI 60 cell line five dose, Melanoma
ACHN = assay: NCI 60 cell line five dose, Renal Cancer
TK-10 = assay: NCI 60 cell line five dose, Renal Cancer
UO-31 = assay: NCI 60 cell line five dose, Renal Cancer
HS 578T = assay: NCI 60 cell line five dose, Breast Cancer; conditions: for Percent Growth: HS578T
NCI/ADR-RES = assay: NCI 60 cell line five dose, Ovarian Cancer; conditions: NCI/ADR-
SK-OV-3 = assay: NCI 60 cell line five dose, Ovarian Cancer
DU-145 = assay: NCI 60 cell line five dose, Prostate Cancer
HOP-92 = assay: NCI 60 cell line five dose, Non-Small Cell Lung Cancer

What does the source list for `C=C1C(=O)O[C@H]2[C@H]1CC/C(COC(=O)NCCCCNC(=O)OC/C1=C/CC[C@@]3(C)O[C@H]3[C@H]3OC(=O)C(=C)[C@@H]3CC1)=C\CC[C@@]1(C)O[C@@H]21` [JVM 3-54, bis(((1aR,7aS,10aS,10bS,E)-1a-Methyl-8-methylene-9-oxo-1a,2,3,6,7,7a,8,9,10a,10b-decahydrooxireno[2′,3′:9,10]cyclodeca[1,2-b]furan-5-yl)methyl)butane-1,4-diyldicarbamate]?
GI50 (EKVX): 3.69 µM; TGI (EKVX): 13.5 µM; Percent Growth (EKVX; Log10 Concentration −4.0): −98%; Percent Growth (EKVX; Log10 Concentration −5.0): 15%; Percent Growth (EKVX; Log10 Concentration −6.0): 96%; Percent Growth (EKVX; Log10 Concentration −7.0): 92%; Percent Growth (EKVX; Log10 Concentration −8.0): 97%; CC50 (EKVX; read-out: LC50 (the source's name)): 37.3 µM; GI50 (HL-60(TB)): 256 nM; TGI (HL-60(TB)): 1.08 µM; Percent Growth (HL-60(TB); Log10 Concentration −4.0): −38%; Percent Growth (HL-60(TB); Log10 Concentration −5.0): −41%; Percent Growth (HL-60(TB); Log10 Concentration −6.0): 1%; Percent Growth (HL-60(TB); Log10 Concentration −7.0): 84%; Percent Growth (HL-60(TB); Log10 Concentration −8.0): 962%; CC50 (HL-60(TB); read-out: LC50): > 100 µM; GI50 (MOLT-4): 1470 nM; TGI (MOLT-4): 4.15 µM; Percent Growth (MOLT-4; Log10 Concentration −4.0): −41%; Percent Growth (MOLT-4; Log10 Concentration −5.0): −42%; Percent Growth (MOLT-4; Log10 Concentration −6.0): 68%; Percent Growth (MOLT-4; Log10 Concentration −7.0): 98%; Percent Growth (MOLT-4; Log10 Concentration −8.0): 98%; CC50 (MOLT-4; read-out: LC50): > 100 µM; GI50 (UACC-257): 1680 nM; TGI (UACC-257): 4.99 µM; Percent Growth (UACC-257; Log10 Concentration −4.0): −82%; Percent Growth (UACC-257; Log10 Concentration −5.0): −32%; Percent Growth (UACC-257; Log10 Concentration −6.0): 74%; Percent Growth (UACC-257; Log10 Concentration −7.0): 92%; Percent Growth (UACC-257; Log10 Concentration −8.0): 95%; CC50 (UACC-257; read-out: LC50): 22.9 µM; GI50 (ACHN): 3.44 µM; TGI (ACHN): 12.9 µM; Percent Growth (ACHN; Log10 Concentration −4.0): −91%; Percent Growth (ACHN; Log10 Concentration −5.0): 11%; Percent Growth (ACHN; Log10 Concentration −6.0): 95%; Percent Growth (ACHN; Log10 Concentration −7.0): 97%; Percent Growth (ACHN; Log10 Concentration −8.0): 100%; CC50 (ACHN; read-out: LC50): 39.8 µM; GI50 (TK-10): 1610 nM; TGI (TK-10): 4.12 µM; Percent Growth (TK-10; Log10 Concentration −4.0): −99%; Percent Growth (TK-10; Log10 Concentration −5.0): −47%; Percent Growth (TK-10; Log10 Concentration −6.0): 75%; Percent Growth (TK-10; Log10 Concentration −7.0): 93%; Percent Growth (TK-10; Log10 Concentration −8.0): 97%; CC50 (TK-10; read-out: LC50): 11.3 µM; GI50 (UO-31): 7.61 µM; TGI (UO-31): 20.9 µM; Percent Growth (UO-31; Log10 Concentration −4.0): −95%; Percent Growth (UO-31; Log10 Concentration −5.0): 45%; Percent Growth (UO-31; Log10 Concentration −6.0): 88%; Percent Growth (UO-31; Log10 Concentration −7.0): 84%; Percent Growth (UO-31; Log10 Concentration −8.0): 86%; CC50 (UO-31; read-out: LC50): 47.7 µM; GI50 (HS 578T; HS 578T): 2540 nM; TGI (HS 578T; HS 578T): 8.14 µM; Percent Growth (HS 578T; Log10 Concentration −4.0): −27%; Percent Growth (HS 578T; Log10 Concentration −5.0): −9%; Percent Growth (HS 578T; Log10 Concentration −6.0): 90%; Percent Growth (HS 578T; Log10 Concentration −7.0): 92%; Percent Growth (HS 578T; Log10 Concentration −8.0): 90%; GI50 (NCI/ADR-RES): 37.7 µM; Percent Growth (NCI/ADR-RES; Log10 Concentration −4.0): 23%; Percent Growth (NCI/ADR-RES; Log10 Concentration −5.0): 86%; Percent Growth (NCI/ADR-RES; Log10 Concentration −6.0): 99%; Percent Growth (NCI/ADR-RES; Log10 Concentration −7.0): 90%; Percent Growth (NCI/ADR-RES; Log10 Concentration −8.0): 94%; CC50 (NCI/ADR-RES; read-out: LC50): > 100 µM; GI50 (SK-OV-3): 12.7 µM; TGI (SK-OV-3): 25.3 µM; Percent Growth (SK-OV-3; Log10 Concentration −4.0): −100%; Percent Growth (SK-OV-3; Log10 Concentration −5.0): 67%; Percent Growth (SK-OV-3; Log10 Concentration −6.0): 107%; Percent Growth (SK-OV-3; Log10 Concentration −7.0): 102%; Percent Growth (SK-OV-3; Log10 Concentration −8.0): 98%; CC50 (SK-OV-3; read-out: LC50): 50.4 µM; GI50 (DU-145): 3.21 µM; TGI (DU-145): 10.5 µM; Percent Growth (DU-145; Log10 Concentration −4.0): −96%; Percent Growth (DU-145; Log10 Concentration −5.0): 2%; Percent Growth (DU-145; Log10 Concentration −6.0): 99%; Percent Growth (DU-145; Log10 Concentration −7.0): 98%; Percent Growth (DU-145; Log10 Concentration −8.0): 99%; CC50 (DU-145; read-out: LC50): 33.8 µM; GI50 (HOP-92): 287 nM; TGI (HOP-92): 1.06 µM; Percent Growth (HOP-92; Log10 Concentration −4.0): −92%; Percent Growth (HOP-92; Log10 Concentration −5.0): −76%; Percent Growth (HOP-92; Log10 Concentration −6.0): 2%; Percent Growth (HOP-92; Log10 Concentration −7.0): 91%; Percent Growth (HOP-92; Log10 Concentration −8.0): 91%
